Measured values: US10669290B2, “Beta-lactamase inhibitors” (priority 2012, dated 2020)
Converted amounts (≈) assume the structure as drawn. Each block holds one compound with its values, some of them ahead of it.

Columns and labels:
[1] = molecular target: T1, OXA-1 (Escherichia coli, UniProt P13661); assay: β-Lactamase inhibition, OXA-1 (nitrocefin substrate); format: biochemical
T1 construct: made in house; host or cells: E. coli BL21 (DE3)
Method: (§1) For SHV-5, Kpc-2, p99AmpC and OXA-1 β-lactamases, E. coli BL21 (DE3) bacterial cells carrying expression plasmids (expressed as native untagged proteins) for the individual β-lactamases were grown in 1 L of Superbroth (Teknova Inc. Hollister, Calif.) supplemented with 100 μg/ml kanamycin selection and 1×5052 (0.5% glycerol, 0.05% glucose and 0.2% α-lactose) at 35° C. for 18-20 hours. Cells were harvested by centrifugation (4,000×g, 4° C., 20 min), resuspended in 50 ml of 10 mM HEPES pH 7.5 ( 1/20 of the initial volume). The cells were lysed by sonication (5 pulses of 45 seconds) at 45 W on ice. The lysates were clarified by centrifugation at 10,000×g for 40 minutes at 4° C. Samples were diluted 5-fold in 50 mM sodium acetate pH 5.0, stored overnight at 4° C., after which they were centrifuged at 10,000×g for 30 minutes to clarify, and filtered through 0.45 µm filters. The samples were loaded onto a 5 ml Capto S sepharose cation exchange column (GE Healthcare) pre-equilibrated with 50 mM sodium acetate pH 5.0. […] Active fractions were pooled concentrated, quantitated by BCA protein determination (Thermo Scientific, Rockford, Ill.), dialyzed into PBS and frozen at −80° C. in 20% glycerol until use.
(§2) An equal volume of diluted enzyme stock was added, and the plates were incubated at 37° C. for 15 min. […] Absorbance at 486 nm was immediately monitored for 10 min using a Biotek Powerwave XS2 microplate spectrophotometer using the GEN5 software package (Biotek Instruments, Winooski Vt.). In an analogous fashion, imipenem was used as substrate for Kpc-2 and Cefotaxime was used for SHV-5, while changes in absorbance upon hydrolysis of the β-lactam ring were monitored at 300 nm and 260 nm respectively in UV-transparent 96-well microtiter assay plates. Maximum rates of hydrolysis were compared to those in control wells (without inhibitors), and percentages of enzyme inhibition were calculated for each concentration of inhibitor. […]

[2] = tested on: E. coli ESBL4 CTX-M-15; assay: Broth microdilution MIC, E. coli ESBL4; format: cell-based; settings: fixed ceftazidime 4 μg/mL, CAMHB, 16-20 hours 37° C.
Method in brief: (§3)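 CAMHB; compound 32–0.25 μg/mL, 2-fold dilutions; β-lactam partner static at 4 μg/ml; CLSI inoculum from 3-5 h culture; 16-20 h, 37° C; visual MIC.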

[3] = molecular target: T2, p99 AmpC (Enterobacter cloacae, UniProt P05364); assay: β-Lactamase inhibition, p99 AmpC (nitrocefin substrate); format: biochemical
T2 construct: made in house; host or cells: E. coli BL21 (DE3)
T2 sequence (P05364 21-381): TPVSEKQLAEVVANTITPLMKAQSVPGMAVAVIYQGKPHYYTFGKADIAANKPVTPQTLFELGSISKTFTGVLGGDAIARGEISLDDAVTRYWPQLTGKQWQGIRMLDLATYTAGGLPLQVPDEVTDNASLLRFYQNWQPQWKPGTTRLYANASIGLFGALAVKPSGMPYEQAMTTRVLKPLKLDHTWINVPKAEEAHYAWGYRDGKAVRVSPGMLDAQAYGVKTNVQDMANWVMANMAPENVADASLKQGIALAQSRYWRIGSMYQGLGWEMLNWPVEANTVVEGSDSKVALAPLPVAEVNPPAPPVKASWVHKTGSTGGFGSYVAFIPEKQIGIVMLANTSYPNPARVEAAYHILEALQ
Method: For SHV-5, Kpc-2, p99AmpC and OXA-1 β-lactamases, E. coli BL21 (DE3) bacterial cells carrying expression plasmids (expressed as native untagged proteins) for the individual β-lactamases were grown in 1 L of Superbroth (Teknova Inc. Hollister, Calif.) supplemented with 100 μg/ml kanamycin selection and 1×5052 (0.5% glycerol, 0.05% glucose and 0.2% α-lactose) at 35° C. for 18-20 hours. Cells were harvested by centrifugation (4,000×g, 4° C., 20 min), resuspended in 50 ml of 10 mM HEPES pH 7.5 ( 1/20 of the initial volume). The cells were lysed by sonication (5 pulses of 45 seconds) at 45 W on ice. The lysates were clarified by centrifugation at 10,000×g for 40 minutes at 4° C. Samples were diluted 5-fold in 50 mM sodium acetate pH 5.0, stored overnight at 4° C., after which they were centrifuged at 10,000×g for 30 minutes to clarify, and filtered through 0.45 µm filters. The samples were loaded onto a 5 ml Capto S sepharose cation exchange column (GE Healthcare) pre-equilibrated with 50 mM sodium acetate pH 5.0. The column was washed with 5 column volumes of 50 mM sodium acetate pH 5.0 to wash out unbound protein and a linear gradient of NaCl (0 to 500 mM) was used to elute the protein (over 16 CV) from the column. Fractions were assayed for β-lactamase activity using Centa (Calbiochem, Gibbstown, N.J.) or Nitrocefin (EMD Millipore chemicals, Darmstadt, Germany) as a reporter β-lactamase substrate for activity in the isolated fractions. Active fractions were pooled, concentrated and further purified by gel filtration chromatography on a Superdex 75 prep grade gel filtration column (GE Healthcare, Piscataway, N.J.) pre-equilibrated in 50 mM Hepes pH 7.5, 150 mM NaCl. Active fractions were pooled concentrated, quantitated by BCA protein determination (Thermo Scientific, Rockford, Ill.), dialyzed into PBS and frozen at −80° C. in 20% glycerol until use.
An equal volume of diluted enzyme stock was added, and the plates were incubated at 37° C. for 15 min. Nitrocefin was used as substrate for p99 AmpC, VIM-2 and OXA-1 and dispensed into each well at a final concentration of 100 μM. Absorbance at 486 nm was immediately monitored for 10 min using a Biotek Powerwave XS2 microplate spectrophotometer using the GEN5 software package (Biotek Instruments, Winooski Vt.). In an analogous fashion, imipenem was used as substrate for Kpc-2 and Cefotaxime was used for SHV-5, while changes in absorbance upon hydrolysis of the β-lactam ring were monitored at 300 nm and 260 nm respectively in UV-transparent 96-well microtiter assay plates. Maximum rates of hydrolysis were compared to those in control wells (without inhibitors), and percentages of enzyme inhibition were calculated for each concentration of inhibitor. The concentration of inhibitor needed to reduce the initial rate of hydrolysis of substrate by 50% (IC50) was calculated as the residual activity of β-lactamase at 486 nm using GraFit version 7 kinetics software package (Erithacus Software, Surrey, UK).
Using the methodology described above, examples of the current invention were evaluated for their ability to inhibit β-lactamase enzymes from all four Ambler classifications (A through D). […] NT=Not tested.

[4] = molecular target: T3, VIM-2 (Escherichia coli, UniProt Q5U7L7); assay: β-Lactamase inhibition, VIM-2 (nitrocefin substrate); format: biochemical
T3 construct: made in house; host or cells: E. coli BL21 (DE3)
Method: as §1, with “use. […]” for “use.”
as §2

[5] = tested on: E. cl 144200 p99 AmpC; assay: Broth microdilution MIC, E. cloacae 144200; format: cell-based; settings: fixed ceftazidime 4 μg/mL, CAMHB, 16-20 hours 37° C.
Method in brief: as §3

[6] = molecular target: T4, SHV-5 (Klebsiella pneumoniae, UniProt P0A3M1); assay: β-Lactamase inhibition, SHV-5 (cefotaxime substrate); format: biochemical
T4 construct: made in house; host or cells: E. coli BL21 (DE3)
T4 sequence (P0A3M1 22-286): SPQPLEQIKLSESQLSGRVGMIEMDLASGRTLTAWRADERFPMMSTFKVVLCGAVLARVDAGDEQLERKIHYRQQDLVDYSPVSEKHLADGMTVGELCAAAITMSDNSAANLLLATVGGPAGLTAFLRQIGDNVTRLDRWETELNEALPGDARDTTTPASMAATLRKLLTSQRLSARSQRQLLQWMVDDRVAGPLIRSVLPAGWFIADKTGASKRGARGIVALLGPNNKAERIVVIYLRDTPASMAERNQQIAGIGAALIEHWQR
Method: as §1, §2

[7] = tested on: K.P. 156319 KPC-3; assay: Broth microdilution MIC, K. pneumoniae 156319; format: cell-based
[8] = tested on: P. aerug. Ps296 VIM-2; assay: Broth microdilution MIC, P. aeruginosa Ps296; format: cell-based; settings: fixed meropenem 4 μg/mL, CAMHB, 16-20 hours 37° C.
Method in brief: as §3

[9] = molecular target: T5, KPC-2 (Klebsiella pneumoniae, UniProt Q9F663); assay: β-Lactamase inhibition, KPC-2 (imipenem substrate); format: biochemical
T5 construct: made in house; host or cells: E. coli BL21 (DE3)
T5 sequence (Q9F663 25-293 limits assumed): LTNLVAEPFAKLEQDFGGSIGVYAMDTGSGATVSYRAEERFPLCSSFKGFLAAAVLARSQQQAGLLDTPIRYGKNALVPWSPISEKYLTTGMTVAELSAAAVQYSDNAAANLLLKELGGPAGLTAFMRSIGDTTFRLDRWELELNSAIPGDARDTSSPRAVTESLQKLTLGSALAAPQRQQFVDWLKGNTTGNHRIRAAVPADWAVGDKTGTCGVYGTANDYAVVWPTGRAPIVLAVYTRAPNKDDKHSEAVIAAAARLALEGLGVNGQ
Method: as §1, §2

[10] = tested on: K.P. A-1797 KPC-2 VIM-4; assay: Broth microdilution MIC, K. pneumoniae A-1797; format: cell-based; settings: fixed meropenem 4 μg/mL, CAMHB, 16-20 hours 37° C.
[11] = tested on: K.P. A-1797 KPC-2 VIM-4; assay: Broth microdilution MIC, K. pneumoniae A-1797; format: cell-based; settings: Klebsiella pneumoniae; partner antibiotic alone, K. pneumoniae expressing KPC-2 and VIM-4
[12] = tested on: S. aureus MSSA-7 PC-1; assay: Broth microdilution MIC, S. aureus MSSA-7; format: cell-based; settings: Staphylococcus aureus, partner antibiotic alone, S. aureus producing Class A penicillinase PC-1

T1 sequence (P13661 26-276): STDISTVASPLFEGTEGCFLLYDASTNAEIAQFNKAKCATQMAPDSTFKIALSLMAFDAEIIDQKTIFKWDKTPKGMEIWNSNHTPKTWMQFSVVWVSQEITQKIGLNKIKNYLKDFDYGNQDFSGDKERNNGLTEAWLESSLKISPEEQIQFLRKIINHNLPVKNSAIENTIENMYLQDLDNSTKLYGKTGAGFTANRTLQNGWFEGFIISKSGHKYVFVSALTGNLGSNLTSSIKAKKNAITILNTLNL

SMILES: N[C@@H]1CC[C@@H](C(=O)N[C@H]2Cc3cccc(C(=O)O)c3OB2O)C[C@H]1N (mixture of isomers) [Example 20, (3R)-3-[[(1S,3S,4S)-3,4-diaminocyclohexanecarbonyl]amino]-2-hydroxy-3,4-dihydro-1,2-benzoxaborinine-8-carboxylic acid and (3R)-3-[[(1R,3R,4R)-3,4-diaminocyclohexanecarbonyl]amino]-2-hydroxy-3,4-dihydro-1,2-benzoxaborinine-8-carboxylic acid]
IC50 [1]: 0.1 to 1 µM | MIC of exemplary compounds in presence of fixed β-lactams, Fixed CAZ, E. coli ESBL4 CTX-M-15 [2]: C (C represents the MIC in the presence of <4 μg/mL of a β-lactamase inhibitor of exemplary compounds) | IC50 [3]: < 0.1 µM | IC50 [4]: < 0.1 µM | MIC of exemplary compounds in presence of fixed β-lactams, Fixed CAZ, E. cl 144200 p99 AmpC [5]: C (C represents the MIC in the presence of <4 μg/mL of a β-lactamase inhibitor of exemplary compounds) | IC50 [6]: 1 to 10 µM | MIC of exemplary compounds in presence of fixed β-lactams, Fixed Mero, K.P. 156319 KPC-3 ([7]; fixed meropenem 4 μg/mL, CAMHB, 16-20 hours 37° C.): C (C represents the MIC in the presence of <4 μg/mL of a β-lactamase inhibitor of exemplary compounds) | MIC of exemplary compounds in presence of fixed β-lactams, Fixed Mero, P. aerug. Ps296 VIM-2 [8]: C (C represents the MIC in the presence of <4 μg/mL of a β-lactamase inhibitor of exemplary compounds) | IC50 [9]: 0.1 to 1 µM | MIC of exemplary compounds in presence of fixed β-lactams, Fixed Mero, K.P. A-1797 KPC-2 VIM-4 [10]: B (B represents the MIC in the presence of between 8 and 32 μg/mL of a β-lactamase inhibitor of exemplary compounds)

SMILES: C[C@@H](O)[C@H]1C(=O)N2C(C(=O)O)=C(S[C@@H]3CN[C@H](C(=O)N(C)C)C3)[C@H](C)[C@H]12 [Meropenem, reference compound]
MIC [11]: 64 µg/mL (≈ 167 µM) | MIC ([7]; Klebsiella pneumoniae, read-out: MIC alone): > 128 µg/mL

MIC [12]: 64 µg/mL (≈ 124 µM)
SMILES: CCN1CCN(C(=O)N[C@@H](C(=O)N[C@@H]2C(=O)N3[C@@H]2SC(C)(C)[C@@H]3C(=O)O)c2ccccc2)C(=O)C1=O [Piperacillin]
